25 compounds from PubChem BioAssay AID330 (DTP/NCI, 2004) can be followed below.

This assay relates to P388 leukemia ip, CD2F1 mice, survival T/C. In words: NCI In Vivo Anticancer Drug Screen. Data for tumor model P388 Leukemia (intraperitoneal) in CD2F1 (CDF1) mice. Particulars: endpoint: median survival time, higher = longer survival. Put shortly: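 Mice carrying the transplanted tumor received test compound or vehicle. Survival was recorded in each group, and the value is the treated-group measurement divided by that of the vehicle-treated control group.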

Setting [1] is: dose: 50.0 mg/kg/injection, schedule: Q01DX009 (ip), vehicle: saline.
[2] abbreviates: dose: 60.0 mg/kg/injection, schedule: Q01DX005 (ip), vehicle: saline with Tween-80.
Where [3] appears, read: dose: 120.0 mg/kg/injection, schedule: Q01DX005 (ip), vehicle: saline with Tween-80.
Setting [4] is: dose: 240.0 mg/kg/injection, schedule: Q01DX005 (ip), vehicle: saline with Tween-80.
Where [5] appears, read: dose: 50.0 mg/kg/injection, schedule: Q01DX009 (ip), vehicle: Klucel (hydroxypropylcellulose) (HPC).
[6] abbreviates: dose: 50.0 mg/kg/injection, schedule: Q01DX005 (ip), vehicle: Klucel (hydroxypropylcellulose) (HPC).
Where [7] appears, read: dose: 100.0 mg/kg/injection, schedule: Q01DX005 (ip), vehicle: Klucel (hydroxypropylcellulose) (HPC).
The mark [8] stands for this setting: dose: 200.0 mg/kg/injection, schedule: Q01DX005 (ip), vehicle: Klucel (hydroxypropylcellulose) (HPC).
Setting [9] is: dose: 12.5 mg/kg/injection, schedule: Q01DX009 (ip), vehicle: saline with Tween-80.
[10] abbreviates: dose: 25.0 mg/kg/injection, schedule: Q01DX009 (ip), vehicle: saline with Tween-80.
[11] abbreviates: dose: 50.0 mg/kg/injection, schedule: Q01DX009 (ip), vehicle: saline with Tween-80.
The mark [12] stands for this setting: dose: 100.0 mg/kg/injection, schedule: Q01DX009 (ip), vehicle: saline.
[13] abbreviates: dose: 200.0 mg/kg/injection, schedule: Q01DX009 (ip), vehicle: saline.

Where “and” joins values, the source holds several entries; their conditions need not be identical. Identical values can stand only once. Toxic doses and inconclusive results are not listed.

Take `CCCCCCCCCCCCCCOCC(O)CN(CCO)CCO` (stereo not drawn): the T/C is 105 % of control (dose: 12.5 mg/kg/injection, schedule: Q01DX009 (ip), vehicle: saline); 105 % of control (dose: 25.0 mg/kg/injection, schedule: Q01DX009 (ip), vehicle: saline); 88 % of control and 98 % of control under setting [1].

As to `COc1cc2c(cc1OC)[Se](Br)(Br)c1cc(OC)c(OC)cc1[Se]2`, the T/C was 107 % of control under setting [2], 98 % of control under setting [3] and 100 % of control under setting [4].

Regarding `CCOC(=O)CN1C(=S)CSC1=S`, the T/C is 106 % of control under setting [5]; 98 % of control (dose: 100.0 mg/kg/injection, schedule: Q01DX009 (ip), vehicle: Klucel (hydroxypropylcellulose) (HPC)); 107 % of control and 109 % of control (dose: 200.0 mg/kg/injection, schedule: Q01DX009 (ip), vehicle: Klucel (hydroxypropylcellulose) (HPC)).

On to `CNC(=S)/N=c1/sc([N+](=O)[O-])c(C)n1C`, for which the T/C is 94 % of control (dose: 1.87 mg/kg/injection, schedule: Q01DX005 (ip), vehicle: saline with Tween-80); 92 % of control (dose: 3.75 mg/kg/injection, schedule: Q01DX005 (ip), vehicle: saline with Tween-80); 99 % of control and 97 % of control (dose: 7.5 mg/kg/injection, schedule: Q01DX005 (ip), vehicle: saline with Tween-80); 95 % of control (dose: 15.0 mg/kg/injection, schedule: Q01DX005 (ip), vehicle: saline with Tween-80).

As for `CCCC(NC(=O)C(C)NC(=O)OCc1ccccc1)C(=O)O` (stereo not drawn), the T/C runs as follows: under setting [6], 98 % of control; under setting [7], 96 % of control; under setting [8], 96 % of control.

`CCOCC1OCCCO1`: the T/C runs as follows: (dose: 60.0 mg/kg/injection, schedule: Q01DX005 (ip), vehicle: saline) 104 % of control; (dose: 120.0 mg/kg/injection, schedule: Q01DX005 (ip), vehicle: saline) 103 % of control; (dose: 240.0 mg/kg/injection, schedule: Q01DX005 (ip), vehicle: saline) 103 % of control.

With `COc1ccc(CSC(=S)Nc2ccc(C(F)(F)F)cc2)cc1`, the T/C was 110 % of control (dose: 50.0 mg/kg/injection, schedule: Q01DX009 (ip), vehicle: suspension in saline); 101 % of control (dose: 100.0 mg/kg/injection, schedule: Q01DX009 (ip), vehicle: suspension in saline); 105 % of control (dose: 200.0 mg/kg/injection, schedule: Q01DX009 (ip), vehicle: suspension in saline).

In the case of `N=C(N)C(Cl)(Cl)Cl`, the T/C runs as follows: under setting [9], 108 % of control; under setting [10], 106 % of control; under setting [11], 101 % of control and 106 % of control.

For the compound `CCOc1ccc(N=NC2C(=O)N(c3cccc(Cl)c3Cl)C(=S)N(c3ccc(OC)cc3)C2O)cc1` (stereo not drawn), the T/C was 100 % of control (dose: 100.0 mg/kg/injection, schedule: Q01DX001 (ip), vehicle: Klucel (hydroxypropylcellulose) (HPC)); 96 % of control (dose: 200.0 mg/kg/injection, schedule: Q01DX001 (ip), vehicle: Klucel (hydroxypropylcellulose) (HPC)); 96 % of control (dose: 400.0 mg/kg/injection, schedule: Q01DX001 (ip), vehicle: Klucel (hydroxypropylcellulose) (HPC)).

As for `COC1=CC(=O)c2c(O)cc(OC)cc2C1=O`, the T/C was 106 % of control and 116 % of control (dose: 1.25 mg/kg/injection, schedule: Q01DX009 (ip), vehicle: saline with Tween-80); 101 % of control and 108 % of control (dose: 2.5 mg/kg/injection, schedule: Q01DX009 (ip), vehicle: saline with Tween-80); 100 % of control and 114 % of control (dose: 5.0 mg/kg/injection, schedule: Q01DX009 (ip), vehicle: saline with Tween-80); 100 % of control and 92 % of control (dose: 10.0 mg/kg/injection, schedule: Q01DX009 (ip), vehicle: saline with Tween-80); 107 % of control and 92 % of control (dose: 20.0 mg/kg/injection, schedule: Q01DX009 (ip), vehicle: saline with Tween-80).

For the compound `Cc1cccc(C)c1NC(=O)Nc1cccc(C(F)(F)F)c1`, the T/C under setting [2] is 100 % of control, the T/C under setting [3] was 100 % of control and the T/C under setting [4] is 90 % of control.

Turning to `COc1ccc2nc3cc(Cl)ccc3c(NCCNCCNCCNc3c4ccc(Cl)cc4nc4ccc(OC)cc34)c2c1`, the T/C under setting [11] is 115 % of control.

`CCCC[N+]1([O-])CCOCC1`: the T/C reads like this: under setting [1], 104 % of control; under setting [12], 100 % of control; under setting [13], 107 % of control.

With `Cn1c(-c2ccccc2)nc2ccccc2c1=O`, the T/C is 95 % of control (dose: 6.25 mg/kg/injection, schedule: Q01DX009 (ip), vehicle: saline with Tween-80); 101 % of control under setting [9]; 101 % of control under setting [10].

As to `O=C(Nc1cccnc1)c1cccc([N+](=O)[O-])c1`, the T/C runs as follows: under setting [2], 100 % of control; under setting [3], 98 % of control; under setting [4], 97 % of control.

With `CSc1nc(NC2OC(COC(C)=O)C(OC(C)=O)C(OC(C)=O)C2OC(C)=O)c(N=CC=Nc2c(NC3OC(COC(C)=O)C(OC(C)=O)C(OC(C)=O)C3OC(C)=O)nc(SC)n(C)c2=O)c(=O)n1C` (stereo not drawn), the T/C was 89 % of control under setting [2] and 91 % of control under setting [3].

For `C=CCC(CC)C(=O)Cl` (stereo not drawn), the T/C runs as follows: (dose: 75.0 mg/kg/injection, schedule: Q01DX009 (ip), vehicle: saline with Tween-80) 93 % of control; (dose: 150.0 mg/kg/injection, schedule: Q01DX009 (ip), vehicle: saline with Tween-80) 92 % of control; (dose: 300.0 mg/kg/injection, schedule: Q01DX009 (ip), vehicle: saline with Tween-80) 111 % of control.

Regarding `CCCCCCCCCCCC[N+](C)([O-])Cc1ccccc1` (stereo not drawn), the T/C under setting [5] is 89 % of control.

As for `O=C(NO)C1CCCCC12OCCO2` (stereo not drawn), the T/C reads like this: (dose: 100.0 mg/kg/injection, schedule: Q04DX002 (ip), vehicle: saline) 98 % of control; (dose: 200.0 mg/kg/injection, schedule: Q04DX002 (ip), vehicle: saline) 101 % of control; (dose: 400.0 mg/kg/injection, schedule: Q04DX002 (ip), vehicle: saline) 101 % of control.

For the compound `CCC/C(=N\NC(N)=NC)c1ccc2c(c1)Cc1cc(/C(CCC)=N/NC(N)=NC)ccc1-2`, the T/C by setting is: (dose: 3.12 mg/kg/injection, schedule: Q04DX002 (ip), vehicle: saline with Tween-80) 96 % of control; (dose: 6.25 mg/kg/injection, schedule: Q04DX002 (ip), vehicle: saline with Tween-80) 100 % of control.

In the case of `CCC(c1ccc(OCC(=O)N2CC2)cc1)C(CC)c1ccc(OCC(=O)N2CC2)cc1` (stereo not drawn), the T/C by setting is: (dose: 100.0 mg/kg/injection, schedule: Q04DX003 (ip), vehicle: suspension in saline) 99 % of control; (dose: 200.0 mg/kg/injection, schedule: Q04DX003 (ip), vehicle: suspension in saline) 98 % of control; (dose: 400.0 mg/kg/injection, schedule: Q04DX003 (ip), vehicle: suspension in saline) 100 % of control.

Regarding `Nc1oc([N+](=O)[O-])cc1[N+](=O)[O-]`, the T/C runs as follows: under setting [12], 106 % of control; under setting [13], 118 % of control.

With `OC(CCl)Cn1nc2ccc3ccccc3c2n1` (stereo not drawn), the T/C was 102 % of control under setting [6]; 100 % of control under setting [7]; 103 % of control (dose: 100.0 mg/kg/injection, schedule: Q04DX003 (ip), vehicle: Klucel (hydroxypropylcellulose) (HPC)); 101 % of control under setting [8]; 102 % of control (dose: 200.0 mg/kg/injection, schedule: Q04DX003 (ip), vehicle: Klucel (hydroxypropylcellulose) (HPC)); 96 % of control (dose: 400.0 mg/kg/injection, schedule: Q04DX003 (ip), vehicle: Klucel (hydroxypropylcellulose) (HPC)).

For `C=C(C)C1CC(=O)C2(C)C(C1)OC(=O)C2C(=O)OCC` (stereo not drawn), the T/C is 101 % of control (dose: 100.0 mg/kg/injection, schedule: Q04DX002 (ip), vehicle: Klucel (hydroxypropylcellulose) (HPC)); 103 % of control and 106 % of control (dose: 200.0 mg/kg/injection, schedule: Q04DX002 (ip), vehicle: Klucel (hydroxypropylcellulose) (HPC)); 103 % of control and 104 % of control (dose: 400.0 mg/kg/injection, schedule: Q04DX002 (ip), vehicle: Klucel (hydroxypropylcellulose) (HPC)).

Take `Clc1ccc2c(c1)C(c1ccccc1)=NCc1nncn1-2`: the T/C is, setting by setting: (dose: 25.0 mg/kg/injection, schedule: Q01DX009 (ip), vehicle: Klucel (hydroxypropylcellulose) (HPC)) 103 % of control; under setting [5], 95 % of control.
